Holding throughout (assay type): functional, organism-based
For assay [1], the system named is Mus musculus. The assay can be described thus: Ventral prostate involution in CD1 mouse at 30 mg/kg, po after 7 days. The note with it: Prostate gland. More on the design: dose 30 mg/kg.
For assay [2], the system named is Mus musculus. Put plainly: Effect on dihydro testosterone level in CD1 mouse plasma at 0.1 mg/kg, po after 7 days. More on the design: dose 0.1 mg/kg.
Assay [3] has as its system Mus musculus. Put plainly: Effect on ventral prostate weight in po dosed CD1 mouse after 7 days. To be noted: Prostate gland.
In assay [4] the test system is Mus musculus. The assay can be described thus: Effect on seminal vesicle weight in po dosed CD1 mouse after 7 days.
The test system of assay [5] is Mus musculus. The assay can be described thus: Effect on testosterone level in CD1 mouse plasma at 0.1 mg/kg, po after 7 days. More on the design: dose 0.1 mg/kg.
Assay [6] has as its system Mus musculus. Put plainly: Effect on testes weight in po dosed CD1 mouse after 7 days. To be noted: Testis.

Molecules are shown by their SMILES. Calls of active or inactive are those of the source. No cut-off for these calls is given here.

Here are results for 2 compounds from ChEMBL document CHEMBL1137384, “Benzopyrans are selective estrogen receptor beta agonists with novel activity in models of benign prostatic hyperplasia” (J Med Chem, 2006).

On to `Oc1ccc([C@@H]2Oc3ccc(O)cc3[C@@H]3CCC[C@@H]32)cc1`, for which the result in the assay on Mus musculus [1] was Active. For the same compound, the outcome in the assay with Mus musculus [2], in the assay on Mus musculus [4], in the assay with Mus musculus [5] and in the assay with Mus musculus [6] was inactive. For the same compound, the Activity entry with Mus musculus [3] is “Dose-dependent effect”.
`CC(C)(C)NC(=O)[C@H]1CC[C@H]2[C@@H]3CC[C@H]4NC(=O)C=C[C@]4(C)[C@H]3CC[C@]12C`: the result with Mus musculus [1] was Active.
